In the NIST ThermoML archive (doi:10.1021/je800152d):

Test: cn = amount concentration of the nth substance listed, in mol/dm3
Conditions: 298.15 K, 101 kPa, Liquid, Direct current cell with electrodes

CCCCCCCCn1cc[n+](C)c1.O=S(=O)([N-]S(=O)(=O)C(F)(F)F)C(F)(F)F + ClCCl
Conditions | molar conductivity [S·m2/mol]
c1 = 1.807e-05 | 0.005919
c1 = 4.306e-05 | 0.004426
c1 = 7.895e-05 | 0.003536
c1 = 0.0001156 | 0.003048
c1 = 0.0001516 | 0.002738
c1 = 0.0001934 | 0.002482
c1 = 0.0002361 | 0.002291
c1 = 0.0002758 | 0.002153
c1 = 0.000322 | 0.002022
c1 = 0.000369 | 0.001913

CCCCCC[n+]1ccn(C)c1.O=S(=O)([N-]S(=O)(=O)C(F)(F)F)C(F)(F)F + ClCCl
Conditions | molar conductivity [S·m2/mol]
c1 = 3.872e-05 | 0.004826
c1 = 7.796e-05 | 0.003727
c1 = 0.0001134 | 0.003224
c1 = 0.0001471 | 0.002907
c1 = 0.0001812 | 0.002674
c1 = 0.000212 | 0.00251
c1 = 0.0002454 | 0.002365
c1 = 0.0002746 | 0.002261
c1 = 0.0003046 | 0.002169
c1 = 0.0003313 | 0.002097

CCCC[n+]1ccn(C)c1.O=S(=O)([N-]S(=O)(=O)C(F)(F)F)C(F)(F)F + ClCCl
Conditions | molar conductivity [S·m2/mol]
c1 = 3.993e-05 | 0.005031
c1 = 7.416e-05 | 0.004
c1 = 0.0001094 | 0.00344
c1 = 0.0001439 | 0.003085
c1 = 0.0001819 | 0.002807
c1 = 0.0002096 | 0.002651
c1 = 0.0002378 | 0.002519
c1 = 0.0002686 | 0.002394
c1 = 0.000298 | 0.002296
c1 = 0.0003273 | 0.002211

CCCCn1cc[n+](C)c1C.O=S(=O)([N-]S(=O)(=O)C(F)(F)F)C(F)(F)F + ClCCl
Conditions | molar conductivity [S·m2/mol]
c1 = 1.989e-05 | 0.008834
c1 = 6.027e-05 | 0.006684
c1 = 9.148e-05 | 0.005885
c1 = 0.000124 | 0.005336
c1 = 0.0001564 | 0.004935
c1 = 0.0001888 | 0.004628
c1 = 0.0002366 | 0.004278
c1 = 0.0002859 | 0.004001
c1 = 0.0003299 | 0.003802
c1 = 0.0003742 | 0.003634

CCCCn1cc[n+](C)c1C.F[P-](F)(F)(F)(F)F [1-butyl-2,3-dimethylimidazolium hexafluorophosphate] + ClCCl
Conditions | molar conductivity [S·m2/mol]
c1 = 4.824e-05 | 0.006815
c1 = 9.247e-05 | 0.00553
c1 = 0.0001694 | 0.004468
c1 = 0.0002351 | 0.003966
c1 = 0.0003147 | 0.003557
c1 = 0.0003984 | 0.003254
c1 = 0.0004826 | 0.003028
c1 = 0.0005864 | 0.002809
c1 = 0.0007039 | 0.002623
c1 = 0.0008092 | 0.002481

CCCCn1cc[n+](C)c1C.F[B-](F)(F)F [1-butyl-2,3-dimethylimidazolium tetrafluoroborate] + ClCCl
Conditions | molar conductivity [S·m2/mol]
c1 = 4.614e-05 | 0.006049
c1 = 9.614e-05 | 0.0047
c1 = 0.0001552 | 0.003942
c1 = 0.0002185 | 0.003459
c1 = 0.0002763 | 0.003161
c1 = 0.0003472 | 0.002891
c1 = 0.0004196 | 0.002684
c1 = 0.0005021 | 0.002502
c1 = 0.0005985 | 0.002336
c1 = 0.0006827 | 0.00222

CCCCn1cc[n+](C)c1.F[P-](F)(F)(F)(F)F [1-butyl-3-methylimidazolium hexafluorophosphate] + ClCCl
Conditions | molar conductivity [S·m2/mol]
c1 = 6.999e-05 | 0.003807
c1 = 0.0001329 | 0.002948
c1 = 0.0001743 | 0.002637
c1 = 0.0002133 | 0.002425
c1 = 0.0002543 | 0.002259
c1 = 0.0003123 | 0.002073
c1 = 0.0003665 | 0.001941
c1 = 0.0004379 | 0.001804
c1 = 0.0005447 | 0.001647
c1 = 0.0006393 | 0.001541

CCCCn1cc[n+](C)c1.F[B-](F)(F)F [1-butyl-3-methylimidazolium tetrafluoroborate] + ClCCl
Conditions | molar conductivity [S·m2/mol]
c1 = 4.455e-05 | 0.003701
c1 = 0.0001304 | 0.002353
c1 = 0.0002072 | 0.001927
c1 = 0.0002805 | 0.001689
c1 = 0.0003592 | 0.00152
c1 = 0.0004262 | 0.001412
c1 = 0.0005183 | 0.001299
c1 = 0.000625 | 0.0012
c1 = 0.0007268 | 0.001127
c1 = 0.0008458 | 0.001058

CCCCCCn1cc[n+](C)c1.F[P-](F)(F)(F)(F)F [1-hexyl-3-methylimidazolium hexafluorophosphate] + ClCCl
Conditions | molar conductivity [S·m2/mol]
c1 = 2.071e-05 | 0.005749
c1 = 5.447e-05 | 0.004058
c1 = 8.254e-05 | 0.003448
c1 = 0.0001144 | 0.003025
c1 = 0.000155 | 0.002673
c1 = 0.0002089 | 0.002363
c1 = 0.0002627 | 0.002148
c1 = 0.0003123 | 0.001996
c1 = 0.0003903 | 0.001821
c1 = 0.0004551 | 0.00171

CCCCCCn1cc[n+](C)c1.F[B-](F)(F)F [1-hexyl-3-methylimidazolium tetrafluoroborate] + ClCCl
Conditions | molar conductivity [S·m2/mol]
c1 = 5.56e-05 | 0.003176
c1 = 0.000168 | 0.001993
c1 = 0.000301 | 0.001551
c1 = 0.0004416 | 0.001315
c1 = 0.0005288 | 0.001218
c1 = 0.0006627 | 0.001107
c1 = 0.0007566 | 0.001048
c1 = 0.0009189 | 0.0009669
c1 = 0.001094 | 0.0009009
c1 = 0.001243 | 0.000856

CCCCCCCC[n+]1ccn(C)c1.F[B-](F)(F)F [1-methyl-3-octylimidazolium tetrafluoroborate] + ClCCl
Conditions | molar conductivity [S·m2/mol]
c1 = 7.212e-05 | 0.002781
c1 = 0.0001299 | 0.002171
c1 = 0.000219 | 0.001735
c1 = 0.0002957 | 0.001524
c1 = 0.0003827 | 0.001364
c1 = 0.0004665 | 0.001253
c1 = 0.0005719 | 0.001149
c1 = 0.0006901 | 0.001061
c1 = 0.0008223 | 0.000986
c1 = 0.0009584 | 0.0009257

CCCCCCCC[n+]1ccn(C)c1.F[P-](F)(F)(F)(F)F [1-octyl-3-methylimidazolium hexafluorophosphate] + ClCCl
Conditions | molar conductivity [S·m2/mol]
c1 = 2.186e-05 | 0.005349
c1 = 5.202e-05 | 0.003925
c1 = 8.128e-05 | 0.003298
c1 = 0.0001312 | 0.002717
c1 = 0.0001741 | 0.00242
c1 = 0.000228 | 0.002164
c1 = 0.0002847 | 0.001973
c1 = 0.00035 | 0.00181
c1 = 0.0004112 | 0.001693
c1 = 0.000468 | 0.001605

CCCC[N+](CCCC)(CCCC)CCCC.O=S(=O)([N-]S(=O)(=O)C(F)(F)F)C(F)(F)F [tetrabutylammonium bis[(trifluoromethyl)sulfonyl]imide] + ClCCl
Conditions | molar conductivity [S·m2/mol]
c1 = 3.138e-05 | 0.007892
c1 = 6.11e-05 | 0.006903
c1 = 0.0001374 | 0.005603
c1 = 0.0001725 | 0.00525
c1 = 0.0002161 | 0.00489
c1 = 0.0002632 | 0.004603
c1 = 0.0003161 | 0.004342
c1 = 0.0003672 | 0.004133
c1 = 0.0004141 | 0.003988

CC[N+](CC)(CC)CC.O=S(=O)([N-]S(=O)(=O)C(F)(F)F)C(F)(F)F [tetraethylammonium bis[(trifluoromethyl)sulfonyl]imide] + ClCCl
Conditions | molar conductivity [S·m2/mol]
c1 = 2.423e-05 | 0.009105
c1 = 5.571e-05 | 0.007427
c1 = 9.604e-05 | 0.006311
c1 = 0.0001485 | 0.005431
c1 = 0.0001889 | 0.005043
c1 = 0.0002419 | 0.004629
c1 = 0.0002877 | 0.004339
c1 = 0.0004028 | 0.003882
c1 = 0.0004632 | 0.003716

CC[N+](CC)(CC)CC.F[P-](F)(F)(F)(F)F [tetraethylammonium hexafluorophosphate] + ClCCl
Conditions | molar conductivity [S·m2/mol]
c1 = 2.991e-05 | 0.008681
c1 = 7.038e-05 | 0.00678
c1 = 0.0001289 | 0.005542
c1 = 0.0001812 | 0.004911
c1 = 0.0002384 | 0.004448
c1 = 0.0002993 | 0.00409
c1 = 0.0003669 | 0.003794
c1 = 0.0004231 | 0.003599
c1 = 0.000508 | 0.003365
c1 = 0.0006057 | 0.003153

CC[N+](CC)(CC)CC.F[B-](F)(F)F [tetraethylammonium tetrafluoroborate] + ClCCl
Conditions | molar conductivity [S·m2/mol]
c1 = 5.65e-05 | 0.006094
c1 = 0.000125 | 0.004646
c1 = 0.0002055 | 0.003888
c1 = 0.0002819 | 0.003459
c1 = 0.0003766 | 0.003101
c1 = 0.0004713 | 0.002847
c1 = 0.0005736 | 0.002643
c1 = 0.0006991 | 0.00245
c1 = 0.0007981 | 0.00233
c1 = 0.0008975 | 0.002227

C[N+](C)(C)C.O=S(=O)([N-]S(=O)(=O)C(F)(F)F)C(F)(F)F [tetramethylammonium bis[(trifluoromethyl)sulfonyl]imide] + ClCCl
Conditions | molar conductivity [S·m2/mol]
c1 = 1.807e-05 | 0.006904
c1 = 4.669e-05 | 0.005019
c1 = 8.293e-05 | 0.004043
c1 = 0.0001225 | 0.003465
c1 = 0.0001669 | 0.003057
c1 = 0.000209 | 0.002792
c1 = 0.0002676 | 0.002521
c1 = 0.0003329 | 0.002305
c1 = 0.0004062 | 0.002123
c1 = 0.0004962 | 0.001957
